Assay results published in ChEMBL document CHEMBL1201862, “PubChem BioAssay data set” (2004).
Values joined by “and” are separate entries in the source; they are usually repeats but may differ in a detail not shown here. Equal entries are not always repeated.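 Where inhibition never reached the appropriate level, the endpoint shown equals the highest concentration tested. Otherwise, values were interpolated linearly from a five-concentration, 48-hour dose response in 96-well plates. At the GI50, growth is halved.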 Active and inactive are the calls of the source. Rule as the data show it: active = GI50 up to about 1.1 µM and inactive = higher.

Key:
Test in all cases: NCI anticancer screen, dose series, 48 h
LOX IMVI = test system: LOX IMVI
XF498 = test system: XF498
DLD-1 = test system: DLD-1
KM12 = test system: KM12
OVCAR-3 = test system: OVCAR-3
HCT-116 = test system: HCT-116
SNB-75 = test system: SNB-75
KM-20L2 = test system: KM-20L2
OVCAR-8 = test system: OVCAR-8
CCRF-CEM = test system: CCRF-CEM
EKVX = test system: EKVX
UACC-62 = test system: UACC-62
SK-OV-3 = test system: SK-OV-3
M14 = test system: M14
PC-3 = test system: PC-3
Hs-578T = test system: Hs-578T
T47D = test system: T47D
UO-31 = test system: UO-31
BT-549 = test system: BT-549
HOP-18 = test system: HOP-18

Measured: GI50

CCOCC(=O)N(C)c1cccc2c3c(n(C)c12)CCCCC3
inactive: LOX IMVI > 100 µM | XF498 > 93.8 µM | DLD-1 > 100 µM | KM12 > 100 µM | OVCAR-3 > 100 µM | HCT-116 > 100 µM | SNB-75 > 46.1 µM | KM-20L2 > 100 µM | OVCAR-8 > 100 µM | CCRF-CEM > 58.9 µM | EKVX > 100 µM | UACC-62 > 100 µM | SK-OV-3 > 100 µM

C/C(=N\N)C(CN1CCCCC1)C(c1ccccc1)c1c(O)c2ccccc2oc1=O (stereo not drawn)
inactive: M14 > 100 µM | LOX IMVI 25.7 µM | XF498 > 100 µM | DLD-1 > 100 µM | PC-3 > 100 µM | KM12 > 100 µM | Hs-578T > 100 µM | OVCAR-3 > 100 µM | T47D > 100 µM | HCT-116 > 100 µM | SNB-75 32.7 µM | UO-31 > 67.3 µM | KM-20L2 > 100 µM | BT-549 > 100 µM | OVCAR-8 > 100 µM | CCRF-CEM > 100 µM | EKVX > 100 µM | UACC-62 > 100 µM | SK-OV-3 > 100 µM

COc1ccc(NC(=O)/C(=C/c2ccc(N(CCC#N)CCC#N)cc2)NC(=O)c2cc([N+](=O)[O-])ccc2Cl)cc1
inactive: M14 > 100 µM | LOX IMVI 18.4 µM | XF498 > 100 µM | DLD-1 15.3 µM | KM12 68.2 µM | OVCAR-3 94.4 µM | HOP-18 > 100 µM | HCT-116 48.2 µM | UO-31 9.91 µM | KM-20L2 36.2 µM | OVCAR-8 38.9 µM | CCRF-CEM 71.6 µM | EKVX 52.1 µM | UACC-62 13.3 µM | SK-OV-3 > 100 µM

Cn1c2c(c3ccccc31)CCN(CCCN1CCN(c3ccccc3)CC1)C2=O
inactive: M14 16.4 µM | LOX IMVI 22.9 µM | XF498 12.6 µM | DLD-1 19.7 µM | HOP-18 15.5 µM | HCT-116 16.1 µM | UO-31 14.7 µM | KM-20L2 12.8 µM | OVCAR-8 21.6 µM | CCRF-CEM 28.2 µM | EKVX 26.7 µM | UACC-62 19.3 µM | SK-OV-3 19.9 µM

CC#CC#C/C=C1\C=CC2(OC=CC2OC(C)=O)O1 (stereo not drawn)
inactive: M14 29.8 µM and 18.4 µM | LOX IMVI 30.1 µM and 16.1 µM | XF498 21.3 µM | DLD-1 16.5 µM | PC-3 28.2 µM | KM12 21.7 µM and 21.8 µM | Hs-578T 27.4 µM | OVCAR-3 32.2 µM | T47D 24.1 µM | SNB-75 38.3 µM and 24.9 µM | UO-31 15.5 µM and 18.4 µM | KM-20L2 3.51 µM | BT-549 34.7 µM | OVCAR-8 31.4 µM and 17.9 µM | CCRF-CEM 8.41 µM and 14 µM | EKVX 29.9 µM and > 40 µM | UACC-62 18.9 µM and 16.4 µM | SK-OV-3 > 100 µM and > 89.1 µM
